Assay [1] deals with T1, D816V Kit (Homo sapiens, UniProt P10721, D816V).
T1 construct: purchased Carna Bioscience 08-156
Briefly: Kit D816V assay at Km (Caliper electrophoretic mobility shift). It is filed as biochemical. The note with it: 15 uM ATP, 25 C, 90 minutes. An outline of the steps:
(§1)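 Read-out is the ratio of phosphorylated to unphosphorylated fluorescent peptide, resolved by mobility shift on a Caliper EZ Reader 2.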

Assay [2] has as its target T2, Kit D816V (HMC1.2 cells, Kit V560G and D816V) (Homo sapiens, UniProt P10721, D816V/V560G).
T2 construct: endogenous in cells; host or cells: HMC1.2 cells
In words: HMC1.2 autophosphorylation assay (AlphaLISA, phospho-Y719 c-Kit). The assay is classed as cell-based. Conditions: Kit autophosphorylation at tyrosine 719, 90 minutes, read-out: Cellular Activity. An outline of the steps:
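Serum-starved (overnight, serum-free IMDM) HMC1.2 cells were treated for 90 min with a 10-point compound series (25 uM–95.4 pM, 0.25% DMSO final). Lysates were probed with phospho-Y719 and total c-Kit antibodies (15 nM final) plus AlphaLISA acceptor and streptavidin donor beads (2 h each, RT), with AlphaScreen read-out.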

Assay [3] has as its target T3, wild type Kit (Homo sapiens, UniProt P10721).
T3 construct: purchased Carna Bioscience 08-156
In words: Kit wild type assay at Km (Caliper electrophoretic mobility shift). The note with it: 400 uM ATP, 25 C, 90 minutes; read-out: WT KIT. The assay is classed as biochemical. In short, it runs like this: as §1

For assay [4], the target named is T4, PDGFRA D842V (Homo sapiens, UniProt P16234, D842V).
T4 construct: purchased ProQinase 0761-0000-1
In words: PDGFRA D842V assay at Km (Caliper electrophoretic mobility shift). It is filed as biochemical. The note with it: 15 uM ATP, 25 C, 90 minutes; read-out: PDFGRA D842V. Here is the method: In order to assess the activity of chemical compounds against the relevant kinase of interest, the Caliper LifeSciences electrophoretic mobility shift technology platform is used. Fluorescently labeled substrate peptide is incubated in the presence of kinase and ATP so that a […] proportion of the peptide is phosphorylated. At the end of the reaction, the mix of phosphorylated (product) and non-phosphorylated (substrate) peptides are passed through the microfluidic system of the Caliper EZ Reader 2, under an applied potential difference. The presence of the phosphate group on the product peptide provides a difference in mass and charge between those of the substrate peptide, resulting in a separation of the substrate and product pools in the sample. As the pools pass a LEDS within the instrument, these pools are detected and resolved as separate peaks. The ratio between these peaks therefore reflects the activity of the chemical matter at that concentration in that well, under those conditions.
The reaction was stopped by the addition of 70 ul of Stop buffer (100 mM HEPES pH 7.5, 0.015% Brij 35, 35 mM EDTA and 0.2% of Coating Reagent 3 (Caliper Lifesciences)). The plate was then read on a Caliper EZReader 2 (protocol settings: −1.9 psi, upstream voltage −500, downstream voltage −3000, post sample sip 38 s).

Experimental findings from patent US9334263B2, “Compositions useful for treating disorders related to kit” (BLUEPRINT MEDICINES CORPORATION, priority 2013, dated 2016) are described below.

Some results are limits rather than exact numbers.

T4 sequence (P16234 24-1089 D842V): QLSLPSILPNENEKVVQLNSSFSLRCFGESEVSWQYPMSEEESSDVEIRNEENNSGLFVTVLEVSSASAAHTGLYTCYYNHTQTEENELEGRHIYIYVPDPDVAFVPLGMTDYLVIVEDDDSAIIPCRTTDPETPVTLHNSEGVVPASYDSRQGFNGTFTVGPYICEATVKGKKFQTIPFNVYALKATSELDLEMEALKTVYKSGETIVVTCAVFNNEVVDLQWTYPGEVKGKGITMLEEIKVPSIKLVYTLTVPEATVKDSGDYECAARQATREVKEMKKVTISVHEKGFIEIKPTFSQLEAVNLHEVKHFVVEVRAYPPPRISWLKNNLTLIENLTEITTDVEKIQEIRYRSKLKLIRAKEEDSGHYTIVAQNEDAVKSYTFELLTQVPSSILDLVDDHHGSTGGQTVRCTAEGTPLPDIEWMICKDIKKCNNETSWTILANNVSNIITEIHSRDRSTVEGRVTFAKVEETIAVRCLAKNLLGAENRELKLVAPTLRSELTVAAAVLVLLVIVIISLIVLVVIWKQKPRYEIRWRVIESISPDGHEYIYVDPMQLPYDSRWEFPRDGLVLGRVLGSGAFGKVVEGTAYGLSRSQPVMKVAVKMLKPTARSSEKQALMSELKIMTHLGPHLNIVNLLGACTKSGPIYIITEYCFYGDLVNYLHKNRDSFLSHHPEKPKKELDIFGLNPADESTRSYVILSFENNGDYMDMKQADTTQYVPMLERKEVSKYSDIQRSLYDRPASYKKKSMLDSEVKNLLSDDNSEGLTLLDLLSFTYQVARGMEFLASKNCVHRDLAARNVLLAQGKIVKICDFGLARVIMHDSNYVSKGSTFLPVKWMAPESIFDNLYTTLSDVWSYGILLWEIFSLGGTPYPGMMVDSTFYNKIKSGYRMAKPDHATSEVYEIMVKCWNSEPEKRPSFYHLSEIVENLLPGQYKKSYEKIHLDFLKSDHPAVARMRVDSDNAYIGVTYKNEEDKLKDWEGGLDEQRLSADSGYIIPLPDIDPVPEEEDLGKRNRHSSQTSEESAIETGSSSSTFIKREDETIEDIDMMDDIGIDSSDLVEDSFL
T2 sequence (P10721 26-976 V560G/D816V): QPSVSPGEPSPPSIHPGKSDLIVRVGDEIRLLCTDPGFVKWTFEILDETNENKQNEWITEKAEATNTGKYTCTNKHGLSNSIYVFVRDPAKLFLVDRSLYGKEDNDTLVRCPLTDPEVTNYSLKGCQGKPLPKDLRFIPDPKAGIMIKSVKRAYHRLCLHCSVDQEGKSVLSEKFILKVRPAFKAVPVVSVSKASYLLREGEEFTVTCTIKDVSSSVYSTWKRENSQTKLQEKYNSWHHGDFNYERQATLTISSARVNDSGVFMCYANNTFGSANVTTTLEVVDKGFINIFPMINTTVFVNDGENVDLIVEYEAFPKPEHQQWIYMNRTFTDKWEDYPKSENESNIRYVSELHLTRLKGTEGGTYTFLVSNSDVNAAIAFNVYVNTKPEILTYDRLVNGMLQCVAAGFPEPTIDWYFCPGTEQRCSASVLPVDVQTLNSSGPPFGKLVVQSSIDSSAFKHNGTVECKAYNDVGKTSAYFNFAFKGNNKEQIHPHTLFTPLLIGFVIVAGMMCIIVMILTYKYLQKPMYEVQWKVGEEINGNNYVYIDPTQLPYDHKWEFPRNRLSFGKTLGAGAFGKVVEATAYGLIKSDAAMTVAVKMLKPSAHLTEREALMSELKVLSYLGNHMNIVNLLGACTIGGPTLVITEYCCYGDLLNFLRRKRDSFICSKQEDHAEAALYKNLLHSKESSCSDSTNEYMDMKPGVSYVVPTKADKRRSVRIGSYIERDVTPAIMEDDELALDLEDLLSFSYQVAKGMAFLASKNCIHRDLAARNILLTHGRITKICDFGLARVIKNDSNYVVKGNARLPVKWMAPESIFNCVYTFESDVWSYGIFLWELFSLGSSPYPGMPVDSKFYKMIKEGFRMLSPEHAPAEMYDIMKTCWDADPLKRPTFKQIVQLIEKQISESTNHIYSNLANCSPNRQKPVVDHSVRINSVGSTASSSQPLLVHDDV
T3 sequence (P10721 26-976): as the sequence (P10721 26-976 V560G/D816V) above, with G535V, V791D counted along it
T1 sequence (P10721 26-976 D816V): as the sequence (P10721 26-976 V560G/D816V) above, with G535V counted along it

In the case of `c1ccc(Cc2cnc(N3CCN(c4ncnc(Nc5cnn([C@@H]6CCNC6)c5)n4)CC3)nc2)cc1` (single isomer, unassigned) [Compound 53], the IC50 in assay [1] was below 1 nM; in assay [2] it was 10 to 100 nM; in assay [3], below 10 nM; in assay [4], below 1 nM.
With `C[C@]1(O)CCCN(c2ccc(Nc3ncnc(N4CCN(c5ncc(Cc6ccccc6)cn5)CC4)n3)cc2)C1` (single isomer, unassigned) [Compound 226], the IC50 fell in the range of 1.01 to 10 nM in assay [1], 10 to 100 nM in assay [2] and 1.01 to 10 nM in assay [4].
Turning to `c1ccc(Cc2cnc(N3CCN(c4ncnc(Nc5cn[nH]c5)n4)CC3)nc2)cc1` [Compound 4], the IC50 in assay [1] is below 1 nM; in assay [2] it was 10 to 100 nM; in assay [3] it was below 10 nM; in assay [4], below 1 nM.
As for `Cn1cc(Nc2ncnc(N3CCN(c4ncc(Cc5ccccc5)cn4)CC3)n2)cn1` [Compound 10], the IC50 in assay [1] was below 1 nM; in assay [2] it was 100 to 1000 nM; in assay [3], 11 to 100 nM; in assay [4], 1.01 to 10 nM.
The matching figures for `Nc1cccc(Nc2ncnc(N3CCN(c4ncc(Cc5ccccc5)cn4)CC3)n2)c1` [Compound 12]: below 1 nM, below 10 nM, below 10 nM and below 1 nM.
As for `OCc1cccc(Nc2ncnc(N3CCN(c4ncc(Cc5ccccc5)cn4)CC3)n2)c1` [Compound 15], the IC50 was below 1 nM in assay [1], 10 to 100 nM in assay [2], 11 to 100 nM in assay [3] and below 1 nM in assay [4].
In the case of `CCNc1cccc(Nc2ncnc(N3CCN(c4ncc(Cc5ccccc5)cn4)CC3)n2)c1` [Compound 25], the IC50 in assay [1] is below 1 nM; in assay [2] it was 10 to 100 nM; in assay [3] it was 11 to 100 nM; in assay [4], below 1 nM.
As for `CNCCn1cc(Nc2ncnc(N3CCN(c4ncc(Cc5ccccc5)cn4)CC3)n2)cn1` [Compound 30], the IC50 in assay [1] was below 1 nM; in assay [2], 10 to 100 nM; in assay [3], 11 to 100 nM; in assay [4], below 1 nM.
Take `c1ccc(Cc2cnc(N3CCN(c4ncnc(Nc5cnc6c(c5)CNCC6)n4)CC3)nc2)cc1` [Compound 43]: the IC50 in assay [1] was below 1 nM; in assay [2], 10 to 100 nM; in assay [3], 11 to 100 nM; in assay [4], 1.01 to 10 nM.
As for `C[C@H](O)Cn1cc(Nc2ncnc(N3CCN(c4ncc(Sc5ccc(F)cc5)cn4)CC3)n2)cn1` [Compound 101], the IC50 is below 1 nM in assay [1], below 10 nM in assay [2] and below 1 nM in assay [4].
As to `CC(C)(O)Cn1cc(Nc2ncnc(N3CCN(c4ncc(Sc5ccc(F)cc5)cn4)CC3)n2)cn1` [Compound 149], the results for the IC50 in assay [1], in assay [2] and in assay [4] were below 1 nM, 10 to 100 nM and 1.01 to 10 nM, respectively.
Regarding `CN1CCN(Cc2cccc(Nc3ncnc(N4CCN(c5ncc(Cc6ccccc6)cn5)CC4)n3)c2)CC1` [Compound 211], the IC50 in assay [1] is below 1 nM; in assay [2], 10 to 100 nM; in assay [4], 1.01 to 10 nM.
`O[C@@H]1CCCN(c2ccc(Nc3ncnc(N4CCN(c5ncc(Cc6ccc(F)cc6)cn5)CC4)n3)cc2)C1` [Compound 239]: the IC50 in assay [1] was 1.01 to 10 nM; in assay [2] it was 10 to 100 nM; in assay [4], 1.01 to 10 nM.
Consider `Fc1ccc(Sc2cnc(N3CCN(c4ncnc(Nc5cnn(C[C@@H]6CNCCO6)c5)n4)CC3)nc2)cc1` [Compound 256], for which the IC50 in assay [1] is below 1 nM; in assay [2] it was 10 to 100 nM; in assay [4], 1.01 to 10 nM.
For `CC(C)(c1ccccc1)c1cnc(N2CCN(c3ncnc(Nc4ccc(N5CCC[C@@H](O)C5)cc4)n3)CC2)nc1` [Compound 263], the IC50 in assay [1] was 1.01 to 10 nM; in assay [2], 10 to 100 nM; in assay [4], 1.01 to 10 nM.
`Cc1c(Nc2ncnc(N3CCN(c4ncc(Cc5ccc(F)cc5)cn4)CC3)n2)cnn1C[C@@H]1CNCCO1` [Compound 271]: the results for the IC50 in assay [1], in assay [2] and in assay [4] were 1.01 to 10 nM, below 10 nM and 1.01 to 10 nM, respectively.
